Results as given in paper PMC9149975, “The diaryl-imidazopyridazine anti-plasmodial compound, MMV652103, exhibits anti-breast cancer activity” (EXCLI Journal, 2022).
Like-named read-outs stand apart in the source and are kept apart here.

Tests used:
[1] = test system: T47D (ER+) breast cancer cells; assay: MTT cytotoxicity assay, T47D; format: cell-based, human; conditions: for IC50: Homo sapiens, T47D
Description: Human estrogen-receptor positive (ER+) breast adenocarcinoma cell lines, MCF7 and T47D, were maintained in Roswell Park Memorial Institute-1640 medium (Sigma Aldrich, Missouri, USA) and the human epidermal growth factor receptor 2 positive (HER2+) BT474, and triple negative (TNBC) MDA-MB-231 and MDA-MB-468 cells were maintained in Dulbecco's Modified Eagle's Medium (DMEM) (Sigma Aldrich, Missouri, USA). FG0 human skin fibroblasts (provided by Associate Professor Denver Hendricks, University of Cape Town) were maintained in DMEM while the normal breast epithelial cell line MCF12A was maintained in DMEM:nutrient mixture F-12 (DMEM/F12; 1:1; Sigma Aldrich, Missouri, USA), supplemented with 20 ng/ml epidermal growth factor, 100 ng/ml cholera toxin, 500 ng/ml hydrocortisone and 10 µg/ml insulin. All media were supplemented with 10 % fetal bovine serum, 100 U/ml penicillin and 100 µg/ml streptomycin. Cells were maintained at 37 °C in a 5 % CO2 and 95 % air-humidified incubator. Media was replaced every 2-3 days and cells were routinely tested for mycoplasma infection.
(§1) Cells (3.5×10^3-6×10^3 / well) were seeded in 96-well plates and treated at a 60-70 % confluence with a range of concentrations (0-10 μM) of test compounds or vehicle for 48 h. Cell viability was measured using the 3-(4,5-dimethylthiazol-2-yl)-2,5-diphenyl-trazolium bromide (MTT) assay (11465007001; Sigma Aldrich) according to the manufacturer's instructions. Mean cell viability was calculated as a percentage of the mean vehicle control. A minimum of three independent experiments in quadruplicate were performed from which the IC50 was determined from sigmoidal plots using GraphPad Prism version 6.0 (GraphPad Software, California, USA). The selectivity index (SI) was determined by dividing the IC50 of a non-malignant cell line by the IC50 of a cancer cell line.

MCF7 cells [2] = assay: Western blotting / immunofluorescence, MCF7; format: cell-based, human
Protocol: Cells were exposed to MMV652103 or vehicle for 24 and 48 h. Cell lysates were prepared, and western blotting performed as previously described (Abrahams et al., 2008[1]). Primary antibodies were: PARP1/2 (sc-7150, 1:1000), p53 (sc-126, 1:1000), p21 (sc-756, 1:1000), cyclin B1 (H-433) (sc-752, 1:500) from Santa Cruz (California, USA), phospho-H2AX (#2577, 1:1000), phospho-p38 MAP Kinase (#9211, 1:1000), LC3 (#2775, 1:1000), caspase-7 (#9492, 1:1000), caspase-8 (#9746, 1:1000), caspase-9 (#9502S, 1:1000), from Cell Signaling (Boston, MA, USA), PUMA (ab9643, 1:1000) (AbCam, Cambridge, MA, USA) and p38 (M0800, 1:5000) from Sigma (St. Louis, MO, USA). Total p38 was used as a loading control because although its activity is modulated by phosphorylation, its total levels remain unaltered in response to stimuli (Raingeaud et al., 1995[68]). Densitometry readings were obtained using ImageJ v1.50i58 and protein expression levels were represented as a ratio of protein of interest/p38 loading control normalized to the vehicle treated control sample where appropriate. All blots are representative of at least three independent experiments.
Cells on glass coverslips were treated with either MMV652103 or vehicle for 24 and 48 h and processed for immunofluorescence with antibodies against phospho H2A.X (#2577) (1:500) or LC3B (#2775) (1:200) (Cell Signaling Technology) as previously described (Bleloch et al., 2019[8]). Cells were imaged using confocal microscopy (Carl Zeiss LSM 880 with Fast Airyscan module confocal (Oberkochen, Germany)). Multiple z layers were acquired with […] step width. Images were processed using ZEN 2012 imaging software (Carl Zeiss) and maximum intensity projections were generated. For quantification, mean fluorescence was measured from at least 20 fields of view per treatment condition and pooled from three independent replicates.

T47D cells [3] = assay: Clonogenic survival assay, T47D; format: cell-based, human; conditions: IC50, 2 x IC50, 4 x IC50 for 24 h
Protocol: Cells were pre-cultured and treated with the indicated concentrations of MMV652103 for 24 h, washed, collected and re-plated, in drug-free medium, at 1000-2000 cells per well in 35 mm dishes, in triplicate. After 10-21 days the surviving cells were fixed with 3:1 methanol: acetic acid and stained with 0.5 % crystal violet (Sigma-Aldrich, USA) in 100 % methanol. Quantification of colonies was performed using ImageJ 1.5J8 software (USA) (Schneider et al., 2012[73]). Number of colonies was determined for each drug concentration and expressed as a percentage of the vehicle treated control.

PIK3C3 = target: T1, PIK3C3 (Homo sapiens, UniProt Q8NEB9); assay: ADP-Glo lipid kinase assay, PIK3C3; format: biochemical; conditions: 10 µM compound
T1 construct: purchased Carna Biosciences Inc; Invitrogen Corporation
T1 sequence (Q8NEB9 whole entry): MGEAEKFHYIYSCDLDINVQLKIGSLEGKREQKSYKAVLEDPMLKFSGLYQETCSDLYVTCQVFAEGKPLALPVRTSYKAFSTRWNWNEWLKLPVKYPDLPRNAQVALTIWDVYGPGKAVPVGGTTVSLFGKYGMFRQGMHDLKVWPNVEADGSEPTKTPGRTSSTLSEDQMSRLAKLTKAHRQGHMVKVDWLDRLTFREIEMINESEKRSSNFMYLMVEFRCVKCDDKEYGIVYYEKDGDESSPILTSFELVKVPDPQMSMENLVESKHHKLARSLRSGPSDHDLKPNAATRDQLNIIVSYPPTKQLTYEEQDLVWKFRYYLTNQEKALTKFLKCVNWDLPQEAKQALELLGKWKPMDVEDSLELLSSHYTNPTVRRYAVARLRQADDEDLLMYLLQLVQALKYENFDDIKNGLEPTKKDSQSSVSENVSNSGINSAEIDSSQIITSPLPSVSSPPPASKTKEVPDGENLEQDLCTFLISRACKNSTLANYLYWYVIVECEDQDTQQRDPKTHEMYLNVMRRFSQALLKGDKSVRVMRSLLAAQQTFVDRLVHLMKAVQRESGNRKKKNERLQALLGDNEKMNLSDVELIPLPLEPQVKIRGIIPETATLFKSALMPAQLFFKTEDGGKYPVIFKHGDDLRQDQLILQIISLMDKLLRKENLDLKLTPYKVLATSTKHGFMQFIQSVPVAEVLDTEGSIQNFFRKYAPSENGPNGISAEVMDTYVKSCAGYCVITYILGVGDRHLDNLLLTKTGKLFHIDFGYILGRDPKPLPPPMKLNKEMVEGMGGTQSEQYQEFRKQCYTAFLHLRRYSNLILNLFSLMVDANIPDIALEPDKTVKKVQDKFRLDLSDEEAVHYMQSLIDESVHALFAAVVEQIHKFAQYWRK

[4] = Solubility in DMSO at 10 mM; format: physicochemical; conditions: final concentration 10 mM
PI4K2A = target: T2, PI4K2A (Homo sapiens, UniProt Q9BTU6); assay: ADP-Glo lipid kinase assay, PI4K2A; format: biochemical; conditions: 10 µM compound
T2 construct: purchased Carna Biosciences Inc; Invitrogen Corporation
T2 sequence (Q9BTU6 whole entry): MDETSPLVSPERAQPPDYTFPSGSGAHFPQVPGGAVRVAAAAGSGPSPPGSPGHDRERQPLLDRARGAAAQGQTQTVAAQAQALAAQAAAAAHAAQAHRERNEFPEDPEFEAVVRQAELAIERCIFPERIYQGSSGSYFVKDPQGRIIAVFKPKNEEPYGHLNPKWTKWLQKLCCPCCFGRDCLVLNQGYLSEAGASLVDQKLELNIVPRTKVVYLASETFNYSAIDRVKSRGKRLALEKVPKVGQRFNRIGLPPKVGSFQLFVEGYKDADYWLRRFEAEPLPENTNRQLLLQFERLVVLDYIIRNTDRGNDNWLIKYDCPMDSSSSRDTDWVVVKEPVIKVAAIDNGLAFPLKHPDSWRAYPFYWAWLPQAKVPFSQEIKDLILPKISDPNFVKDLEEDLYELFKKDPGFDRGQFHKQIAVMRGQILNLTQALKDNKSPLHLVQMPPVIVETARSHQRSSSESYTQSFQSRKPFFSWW

T47D cells [5] = assay: Scratch motility assay, T47D; format: cell-based, human; conditions: IC50 and 2 x IC50; 3, 6, 9 h
Protocol: (§2) Cells were grown to 100 % confluence in 12-well tissue culture plates and the following day a sterile 2 µl pipette tip was used to make a vertical scratch in the cell monolayer of each well and the cells treated with mitomycin C (M4287; Sigma Aldrich) at a final concentration of 10 μg/ml to inhibit proliferation. Cells were subsequently treated with MMV652103 or vehicle and imaged at 0, 3, 6 and 9 h post wound formation and ImageJ v1.50i software was used to calculate the area of the scratch (Schneider et al., 2012[73]). The total areas migrated was determined by subtracting the area for a specific time point from the area measured at 0 h.

MCF7 cells [6] = assay: Scratch motility assay, MCF7; format: cell-based, human; conditions: IC50 and 2 x IC50; 3, 6, 9 h
Protocol: as §2

[7] = test system: MDA-MB-231 (TNBC) breast cancer cells; assay: MTT cytotoxicity assay, MDA-MB-231; format: cell-based; conditions: Homo sapiens
Protocol: Human estrogen-receptor positive (ER+) breast adenocarcinoma cell lines, MCF7 and T47D, were maintained in Roswell Park Memorial Institute-1640 medium (Sigma Aldrich, Missouri, USA) and the human epidermal growth factor receptor 2 positive (HER2+) BT474, and triple negative (TNBC) MDA-MB-231 and MDA-MB-468 cells were maintained in Dulbecco's Modified Eagle's Medium (DMEM) (Sigma Aldrich, Missouri, USA). […]
as §1

CS(=O)(=O)c1ccc(-c2cnc3ccc(-c4cccc(S(C)(=O)=O)c4)nn23)cc1 [MMV652103]
IC50 ([1]; Fig 2C summary, MTT 48 h, read-out: IC50 ± SEM T47D): 2.9 ± 1.1 µM
IC50 ([1]; MTT, 48 h, read-out: IC50 T47D): 2.9 µM
SI FG0 (T47D) ([1]; IC50 FG0 / IC50 T47D): > 2
LC3 to LC3II conversion (MCF7 cells [2]; western blot): led to the conversion of LC3 to LC3II
cyclin A and cyclin B1 levels (MCF7 cells [2]; western blot): reduced
levels of p53, MCF7 (MCF7 cells [2]; western blot): dose- and time-dependent increase
levels of phosphorylated p38, MCF7 (MCF7 cells [2]; western blot): increased
p21 levels, MCF7 (MCF7 cells [2]; western blot): increased
levels of γH2AX, MCF7 (MCF7 cells [2]; ½ IC50 and IC50, 24 and 48 h): dose- and time-dependent increase
levels of PUMA, cleaved caspase-8, caspase-9, caspase-7 and PARP (MCF7 cells [2]; ½ IC50 and IC50, western blot): increased levels
number of T47D cell colonies (T47D cells [3]): dose-dependent reduction
remaining activity at 10 µM (PIK3C3): 24%
Solubility (DMSO) [4]: soluble in DMSO
Solubility (DMSO) ([4]; listed as 652103): Successful
remaining activity at 10 µM (PI4K2A): 42%
T47D cell migration (T47D cells [5]): significant reduction
MCF7 cell migration (MCF7 cells [6]): significant reduction
IC50 ([7]; Fig 2C summary, MTT 48 h, read-out: IC50 ± SEM MDA-MB-231): 14.3 ± 1.03 µM
IC50 ([7]; MTT, 48 h, read-out: IC50 MDA-MB-231): 14.3 µM
